Experimental data published in article PMC9804781, “Identification of a Novel Pseudo‐Natural Product Type IV IDO1 Inhibitor Chemotype” (Angewandte Chemie (International Ed. in English), 2022).
Like-named read-outs stand apart in the source and are kept apart here.

How the values were obtained:
His-tagged TDO = biological target: T1, His-tagged TDO (Homo sapiens, UniProt P48775); assay: TDO Activity Assay; format: biochemical; details: 50 µM; 120 min at 37 °C
T1 construct: His; purchased BPS Bioscience 72035 (kit)
T1 sequence (P48775 whole entry): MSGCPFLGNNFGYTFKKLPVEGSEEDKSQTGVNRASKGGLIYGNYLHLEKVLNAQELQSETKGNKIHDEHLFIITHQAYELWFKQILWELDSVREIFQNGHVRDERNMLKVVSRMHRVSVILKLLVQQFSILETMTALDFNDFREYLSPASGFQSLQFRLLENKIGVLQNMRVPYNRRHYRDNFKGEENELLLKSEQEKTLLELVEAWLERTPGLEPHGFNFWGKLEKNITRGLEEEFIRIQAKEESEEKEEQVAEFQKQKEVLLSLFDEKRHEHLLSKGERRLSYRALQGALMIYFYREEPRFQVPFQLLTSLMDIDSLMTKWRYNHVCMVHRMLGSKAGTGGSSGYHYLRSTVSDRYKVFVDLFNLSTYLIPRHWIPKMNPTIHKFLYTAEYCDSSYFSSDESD
Procedure: Inhibition of tryptophan 2,3-dioxygenase (TDO) was tested using the Universal IDO1/IDO2/TDO Inhibitor Screening Assay Kit (cat# 72035, BPS Bioscience, US). 500 ng His-tagged TDO in TDO Assay Buffer was incubated with Reaction Solution and 50 µM Test Inhibitor (0.5% (v/v) DMSO) for 120 min at 37°C with slow shaking in the dark. Afterwards, absorbance at 321 nm was recorded on the Spark® Multimode Microplate Reader (Tecan, AT), all values were subtracted by the background and normalized to the DMSO control. […]
(v/v) component 2 in component 1) and 50 µM Test Inhibitor (0.5% (v/v) DMSO) for 90 min at 30°C with slow shaking in the dark prior to initiation of the reaction by addition of 20% (v/v) IDO2 Substrate. Samples were incubated for 120 min at 30°C with slow shaking in the dark. […]

Kyn levels in HeLa cells = assay: Manual Kyn assay in HeLa cells (p-DMAB detection); format: cell-based; details: for IC50: IFN-γ, L-Trp, p-DMAB
Procedure: (§1) Mammalian cell lines were maintained at 37°C and 5% CO2 in a humidified atmosphere and sub-cultivated twice a week. All cell lines were tested regularly for mycoplasma contamination and were always free of mycoplasma. BxPC-3 cells (DSMZ#760) were grown in RPMI-1640 medium supplemented with 10% FBS, 2 mM L-glutamine, 1 mM sodium pyruvate, 4.5 g/L glucose, 10 mM HEPES and 1.5 g/L NaHCO3. HeLa cells (DSMZ#57) were cultivated in DMEM supplemented with 10% FBS, 4.5 g/L glucose, 4 mM L-glutamine 1 mM sodium pyruvate, 1% non-essential amino acids, 3.7 g/L NaHCO3. SKOV-3 cells (ATCC#HTB-77) were maintained in modified McCoy’s 5A medium supplemented with 10% FBS, 1.5 mM L-glutamine and 2.2 g/L NaHCO3. […]
For manual testing, BxPC-3, HeLa or SKOV-3 cells (20,000 cells/well, 5,000 cells/well or 6,250 cells/well, respectively) were seeded in 96-well plates (BxPC-3 and HeLa) or 384-well plates (SKOV-3) in medium without phenol red. After 24 h, the IDO1 pathway was induced by addition of 50 ng/mL (BxPC-3 and HeLa) or 17.6 ng/mL IFN-γ (SKOV-3) and 380 µM (BxPC-3), 164.15 µM (HeLa) or 450 µM L-Trp (SKOV-3) with simultaneous treatment with the compounds at the indicated concentrations followed by incubation for 48 h. For the hemin competition assay, hemin was added together with IFN-γ, L-Trp and the compounds. Subsequently, trichloroacetic acid was added to a final concentration of 7% (v/v), the plates were incubated for 15 min at room […]
(§2) temperature and centrifuged for 10 min at 1800 x g. Afterwards, an equal volume of freshly prepared 2% (w/v) p-DMAB in glacial acetic acid (Ehrlich reagent) was added prior to measuring the absorbance at 492 nm and 650 nm on the Spark® Multimode Microplate Reader (Tecan, AT).
To determine the Kyn levels, the absorbance of the Kyn-p-DMAB adduct A492 was subtracted by the background absorbance A650 and normalized to the DMSO control. Data analysis was performed using a non-linear regression curve fit and GraphPad Prism 9.0 (GraphPad Software, Inc, US) to generate dose-response curves and obtain IC50 values. […]
Subsequently, 10 mM ascorbic acid, 10 μM methylene blue, 2 mM L-Trp and 100 μg/mL catalase were added and samples were incubated for 60 min at room temperature or 37°C. […]

[1] = system: Kyn levels in BxPC-3 cells; assay: Manual Kyn assay in BxPC-3 cells (p-DMAB detection), incl. hemin competition; format: cell-based; details: IFN-γ, L-Trp
Procedure: as §1
For manual testing, BxPC-3, HeLa or SKOV-3 cells (20,000 cells/well, 5,000 cells/well or 6,250 cells/well, respectively) were seeded in 96-well plates (BxPC-3 and HeLa) or 384-well plates (SKOV-3) in medium without phenol red. […]
as §2
To determine the Kyn levels, the absorbance of the Kyn-p-DMAB adduct A492 was subtracted by the background absorbance A650 and normalized to the DMSO control. […]

inhibition of TDO (result in words) (His-tagged TDO): did not inhibit
IC50 (Kyn levels in HeLa cells; Homo sapiens, HeLa, 48 h, 48 h, mean±SD, n=3, read-out: Kyn assay IC50 HeLa): 46.7 ± 2.4 nM
IC50 (Kyn levels in HeLa cells; 48 h, mean±SD, n=3, listed as apoxidole-1, read-out: Kyn assay IC50 HeLa): 46.7 ± 2.44 nM
IC50 (Kyn levels in HeLa cells; compounds 48 h, mean n=3 ±SD, listed as 3d^a, read-out: Kyn Assay IC50): 280 ± 40 nM
IC50 (Kyn levels in HeLa cells; compounds 48 h, mean n=3 ±SD, listed as 3d^ab, read-out: Kyn Assay IC50): 3410 ± 260 nM
IC50 (Kyn levels in HeLa cells; compounds 48 h, mean n=3 ±SD, listed as 3d^b, read-out: Kyn Assay IC50): 47 ± 2 nM
IC50 (Kyn levels in HeLa cells; compounds 48 h, mean n=3 ±SD, read-out: Kyn Assay IC50): 70 ± 10 nM
Compound: CCOC(=O)C1=CC[C@](C(=O)OC)(c2cc3ccccc3n2C)N(S(=O)(=O)c2ccc(C)cc2)[C@@H]1C(=O)OC(C)(C)C [Compound 3d]
fold less active than enantiopure apoxidole-1 (Kyn assay) (Kyn levels in HeLa cells): 72 fold
effect of free hemin on potency in the Kyn assay ([1]; BxPC-3, hemin, 600 nM apoxidole-1, 48 h): reduced the potency
activity in Kyn assay in BxPC-3 cells ([1]; BxPC-3 cells, 48 h, p-DMAB): completely inactive
